Measurements from patent US7091351B2, “Vanadium compounds for treating cancer” (Parker Hughes Institute, priority 1998, dated 2006).

tested on: NALM-6 cells; assay: MTT cytotoxicity assay of oxovanadium(IV) compounds, NALM-6; assay type: cell-based, human; details: 48 hr
Procedure: (§1) The cytotoxicity of oxovanadium (W) complexes listed in Table 6 were tested against 9 different human cancer cell lines was performed using the MTT (3-[4,5-dimethylthiazol-2-yl]-2,5-diphenyl tetrazolium bromide) assay (Boehringer Mannheim Corp., Indianapolis, Ind.) as described previously (20). Briefly, exponentially growing tumor cells were seeded into a 96-well plate at a density of 4×10^4cells/well and incubated with medium containing the oxovanadium(IV) compounds concentrations ranging from 0.1 to 250 μM for 48 hours at 37° C. in a humidified 5% CO2 atmosphere. Triplicate wells were used for each treatment. To each well, 10 μl of MTT (0.5 mg/ml final concentration) was added and the plates were incubated at 37° C. for 4 hours to allow MTT to form formazan crystals by reacting with metabolically active cells . The formazan crystals were solubilized overnight at 37° C. in a solution containing 10% SDS in 0.01 M HCl. The absorbence of each well was measured in a microplate reader (Labsystems) at 540 nm and a reference wavelength of 690 nm. To translate the OD540 values into the number of live cells in each well, the OD540 values were compared to those on standard OD540—versus—cell number curves generated for each cell line. The percent survival was calculated using the formula: % survival=Live cell number[test]/Live cell number [control]×100. The IC50 values were calculated by non-linear regression analysis using an Graphpad Prism software version 2.0 (Graphpad Software, Inc., San Diego, Calif.).

Compound | IC50
bis(4,4′-dimethyl-2,2′-bipyridyl) sulfatooxovanadium(IV) [Compound 37] | 3.9 ± 0.3 µM
bis(5-chloro-1,10-phenanthroline)sulfatooxovanadium(IV) [Compound 31] | 1.6 ± 0.03 µM
CC(=O)c1cc(Br)ccc1[O][V](=[O])[O]c1ccc(Br)cc1C(C)=O [Compound 40, bis(5′-bromo-2′-hydroxyacetophenone)oxovanadium(IV)] | 17.4 ± 0.9 µM
bis(5-nitro-1,10-phenanthroline)sulfatooxovanadium(IV) [Compound 33] | 0.7 ± 0.01 µM
(diaqua) (1,10-phenanthroline)oxovanadium(IV) sulfate [Compound 26] | 3.4 ± 0.2 µM
(diaqua)(5-chloro-1,10-phenanthroline)oxovanadium(IV) sulfate [Compound 30] | 3.6 ± 0.07 µM

tested on: MOLT-3 cells; assay: MTT cytotoxicity assay of oxovanadium(IV) compounds, MOLT-3; assay type: cell-based, human; details: 48 hr
Procedure: as §1

Compound | IC50
bis(4,4′-dimethyl-2,2′-bipyridyl) sulfatooxovanadium(IV) [Compound 37] | 4.8 ± 0.3 µM
bis(5-chloro-1,10-phenanthroline)sulfatooxovanadium(IV) [Compound 31] | 2.1 ± 0.2 µM
CC(=O)c1cc(Br)ccc1[O][V](=[O])[O]c1ccc(Br)cc1C(C)=O [Compound 40, bis(5′-bromo-2′-hydroxyacetophenone)oxovanadium(IV)] | 41.8 ± 3.9 µM
bis(5-nitro-1,10-phenanthroline)sulfatooxovanadium(IV) [Compound 33] | 1.4 ± 0.06 µM
(diaqua) (1,10-phenanthroline)oxovanadium(IV) sulfate [Compound 26] | 2.7 ± 0.2 µM
(diaqua)(5-chloro-1,10-phenanthroline)oxovanadium(IV) sulfate [Compound 30] | 3.4 ± 0.03 µM

tested on: HS445 Hodgkin's lymphoma cells; assay: MTT cytotoxicity assay of oxovanadium(IV) compounds, HS445; assay type: cell-based, human; details: 48 hr
Procedure: as §1

Compound | IC50
bis(4,4′-dimethyl-2,2′-bipyridyl) sulfatooxovanadium(IV) [Compound 37] | 12.6 ± 3.3 µM
bis(5-chloro-1,10-phenanthroline)sulfatooxovanadium(IV) [Compound 31] | 5.2 ± 1.1 µM
CC(=O)c1cc(Br)ccc1[O][V](=[O])[O]c1ccc(Br)cc1C(C)=O [Compound 40, bis(5′-bromo-2′-hydroxyacetophenone)oxovanadium(IV)] | 96.5 ± 6.4 µM
bis(5-nitro-1,10-phenanthroline)sulfatooxovanadium(IV) [Compound 33] | 2.3 ± 0.6 µM
(diaqua) (1,10-phenanthroline)oxovanadium(IV) sulfate [Compound 26] | 6.3 ± 1.8 µM
(diaqua)(5-chloro-1,10-phenanthroline)oxovanadium(IV) sulfate [Compound 30] | 7.5 ± 2.5 µM

tested on: HL-60 cells; assay: MTT cytotoxicity assay of oxovanadium(IV) compounds, HL-60; assay type: cell-based, human; details: 48 hr
Procedure: as §1

Compound | IC50
bis(4,4′-dimethyl-2,2′-bipyridyl) sulfatooxovanadium(IV) [Compound 37] | 28.4 ± 3.8 µM
bis(5-chloro-1,10-phenanthroline)sulfatooxovanadium(IV) [Compound 31] | 5.3 ± 1.8 µM
CC(=O)c1cc(Br)ccc1[O][V](=[O])[O]c1ccc(Br)cc1C(C)=O [Compound 40, bis(5′-bromo-2′-hydroxyacetophenone)oxovanadium(IV)] | > 100 µM
bis(5-nitro-1,10-phenanthroline)sulfatooxovanadium(IV) [Compound 33] | 2.6 ± 0.4 µM
(diaqua) (1,10-phenanthroline)oxovanadium(IV) sulfate [Compound 26] | 3.2 ± 1.1 µM
(diaqua)(5-chloro-1,10-phenanthroline)oxovanadium(IV) sulfate [Compound 30] | 15.3 ± 4.9 µM

tested on: U266BL multiple myeloma cells; assay: MTT cytotoxicity assay of oxovanadium(IV) compounds, U266BL; assay type: cell-based, human; details: 48 hr
Procedure: as §1

Compound | IC50
bis(4,4′-dimethyl-2,2′-bipyridyl) sulfatooxovanadium(IV) [Compound 37] | 13.3 ± 5.1 µM
bis(5-chloro-1,10-phenanthroline)sulfatooxovanadium(IV) [Compound 31] | 3.7 ± 1.1 µM
CC(=O)c1cc(Br)ccc1[O][V](=[O])[O]c1ccc(Br)cc1C(C)=O [Compound 40, bis(5′-bromo-2′-hydroxyacetophenone)oxovanadium(IV)] | 98.1 ± 6.7 µM
bis(5-nitro-1,10-phenanthroline)sulfatooxovanadium(IV) [Compound 33] | 7.2 ± 1.1 µM
(diaqua) (1,10-phenanthroline)oxovanadium(IV) sulfate [Compound 26] | 3.5 ± 0.5 µM
(diaqua)(5-chloro-1,10-phenanthroline)oxovanadium(IV) sulfate [Compound 30] | 8.5 ± 1.2 µM

tested on: ARH77 multiple myeloma cells; assay: MTT cytotoxicity assay of oxovanadium(IV) compounds, ARH77; assay type: cell-based, human; details: 48 hr
Procedure: as §1, with “Briefly, exponentially growing tumor cells were seeded into a 96-well plate at a density of 4×10^4cells/well and incubated with medium containing the oxovanadium(IV) compounds concentrations ranging from 0.1 to 250 μM for 48 hours at 37° C. in a humidified 5% CO2 atmosphere.” left out

Compound | IC50
bis(4,4′-dimethyl-2,2′-bipyridyl) sulfatooxovanadium(IV) [Compound 37] | 58.3 ± 6.8 µM
CC(=O)c1cc(Br)ccc1[O][V](=[O])[O]c1ccc(Br)cc1C(C)=O [Compound 40, bis(5′-bromo-2′-hydroxyacetophenone)oxovanadium(IV)] | > 100 µM
bis(5-nitro-1,10-phenanthroline)sulfatooxovanadium(IV) [Compound 33] | 5.7 ± 1.3 µM
(diaqua) (1,10-phenanthroline)oxovanadium(IV) sulfate [Compound 26] | 15.6 ± 3.2 µM
(diaqua)(5-chloro-1,10-phenanthroline)oxovanadium(IV) sulfate [Compound 30] | 30.3 ± 5.6 µM

tested on: HS-SULTAN multiple myeloma cells; assay: MTT cytotoxicity assay of oxovanadium(IV) compounds, HS-SULTAN; assay type: cell-based, human; details: 48 hr
Procedure: as §1

Compound | IC50
bis(4,4′-dimethyl-2,2′-bipyridyl) sulfatooxovanadium(IV) [Compound 37] | 11.4 ± 2.2 µM
bis(5-chloro-1,10-phenanthroline)sulfatooxovanadium(IV) [Compound 31] | 5.8 ± 0.6 µM
CC(=O)c1cc(Br)ccc1[O][V](=[O])[O]c1ccc(Br)cc1C(C)=O [Compound 40, bis(5′-bromo-2′-hydroxyacetophenone)oxovanadium(IV)] | 78.4 ± 5.8 µM
bis(5-nitro-1,10-phenanthroline)sulfatooxovanadium(IV) [Compound 33] | 13.8 ± 3.6 µM
(diaqua) (1,10-phenanthroline)oxovanadium(IV) sulfate [Compound 26] | 11.2 ± 2.2 µM
(diaqua)(5-chloro-1,10-phenanthroline)oxovanadium(IV) sulfate [Compound 30] | 9.9 ± 5.4 µM

tested on: 833-K testicular cancer cells; assay: Cytotoxic activity of oxovanadium(IV) compounds, 833-K; assay type: cell-based, human; details: read-out: Cytotoxic Activity 833-K
Procedure: as §1

Compound | IC50
bis(4,4′-dimethyl-2,2′-bipyridyl) sulfatooxovanadium(IV) [Compound 37] | 34.9 µM
bis(5-chloro-1,10-phenanthroline)sulfatooxovanadium(IV) [Compound 31] | 4.6 µM
CC(=O)c1cc(Br)ccc1[O][V](=[O])[O]c1ccc(Br)cc1C(C)=O [Compound 40, bis(5′-bromo-2′-hydroxyacetophenone)oxovanadium(IV)] | > 100 µM
bis(5-nitro-1,10-phenanthroline)sulfatooxovanadium(IV) [Compound 33] | 1.1 µM
(diaqua) (1,10-phenanthroline)oxovanadium(IV) sulfate [Compound 26] | 12.8 µM
(diaqua)(5-chloro-1,10-phenanthroline)oxovanadium(IV) sulfate [Compound 30] | 12.8 µM

tested on: 64cp5 testicular cancer cells; assay: Cytotoxic activity of oxovanadium(IV) compounds, 64cp5; assay type: cell-based, human; details: read-out: Cytotoxic Activity 64cp5
Procedure: as §1

Compound | IC50
bis(4,4′-dimethyl-2,2′-bipyridyl) sulfatooxovanadium(IV) [Compound 37] | > 100 µM
bis(5-chloro-1,10-phenanthroline)sulfatooxovanadium(IV) [Compound 31] | > 100 µM
CC(=O)c1cc(Br)ccc1[O][V](=[O])[O]c1ccc(Br)cc1C(C)=O [Compound 40, bis(5′-bromo-2′-hydroxyacetophenone)oxovanadium(IV)] | > 100 µM
bis(5-nitro-1,10-phenanthroline)sulfatooxovanadium(IV) [Compound 33] | 5.9 µM
(diaqua) (1,10-phenanthroline)oxovanadium(IV) sulfate [Compound 26] | 8.5 µM
(diaqua)(5-chloro-1,10-phenanthroline)oxovanadium(IV) sulfate [Compound 30] | 10.9 µM

tested on: Tera-2 testicular cancer cells; assay: Cytotoxic activity of oxovanadium(IV) compounds, TERA-2; assay type: cell-based, human; details: read-out: Cytotoxic Activity TERA-2
Procedure: as §1

Compound | IC50
bis(4,4′-dimethyl-2,2′-bipyridyl) sulfatooxovanadium(IV) [Compound 37] | > 100 µM
bis(5-chloro-1,10-phenanthroline)sulfatooxovanadium(IV) [Compound 31] | 24.2 µM
CC(=O)c1cc(Br)ccc1[O][V](=[O])[O]c1ccc(Br)cc1C(C)=O [Compound 40, bis(5′-bromo-2′-hydroxyacetophenone)oxovanadium(IV)] | 35.4 µM
bis(5-nitro-1,10-phenanthroline)sulfatooxovanadium(IV) [Compound 33] | 2.6 µM
(diaqua) (1,10-phenanthroline)oxovanadium(IV) sulfate [Compound 26] | > 100 µM
(diaqua)(5-chloro-1,10-phenanthroline)oxovanadium(IV) sulfate [Compound 30] | 18.1 µM

tested on: NTD1 testicular cancer cells; assay: Cytotoxic activity of oxovanadium(IV) compounds, NTD1; assay type: cell-based, human; details: read-out: Cytotoxic Activity NTD1
Procedure: as §1

Compound | IC50
bis(4,4′-dimethyl-2,2′-bipyridyl) sulfatooxovanadium(IV) [Compound 37] | > 100 µM
bis(5-chloro-1,10-phenanthroline)sulfatooxovanadium(IV) [Compound 31] | 50.1 µM
CC(=O)c1cc(Br)ccc1[O][V](=[O])[O]c1ccc(Br)cc1C(C)=O [Compound 40, bis(5′-bromo-2′-hydroxyacetophenone)oxovanadium(IV)] | > 100 µM
bis(5-nitro-1,10-phenanthroline)sulfatooxovanadium(IV) [Compound 33] | 9.1 µM
(diaqua) (1,10-phenanthroline)oxovanadium(IV) sulfate [Compound 26] | > 100 µM
(diaqua)(5-chloro-1,10-phenanthroline)oxovanadium(IV) sulfate [Compound 30] | > 100 µM

tested on: U373 glioblastoma cells; assay: Cytotoxic activity of oxovanadium(IV) compounds, U373; assay type: cell-based, human; details: read-out: Cytotoxic Activity U373
Procedure: as §1

Compound | IC50
bis(4,4′-dimethyl-2,2′-bipyridyl) sulfatooxovanadium(IV) [Compound 37] | 25.6 µM
bis(5-chloro-1,10-phenanthroline)sulfatooxovanadium(IV) [Compound 31] | 6.3 µM
CC(=O)c1cc(Br)ccc1[O][V](=[O])[O]c1ccc(Br)cc1C(C)=O [Compound 40, bis(5′-bromo-2′-hydroxyacetophenone)oxovanadium(IV)] | > 100 µM
bis(5-nitro-1,10-phenanthroline)sulfatooxovanadium(IV) [Compound 33] | 7.2 µM
(diaqua) (1,10-phenanthroline)oxovanadium(IV) sulfate [Compound 26] | 7.7 µM
(diaqua)(5-chloro-1,10-phenanthroline)oxovanadium(IV) sulfate [Compound 30] | 22.4 µM

tested on: BT20 breast cancer cells; assay: Cytotoxic activity of oxovanadium(IV) compounds, BT20; assay type: cell-based, human; details: read-out: Cytotoxic Activity BT20
Procedure: as §1

Compound | IC50
bis(4,4′-dimethyl-2,2′-bipyridyl) sulfatooxovanadium(IV) [Compound 37] | 15.7 µM
bis(5-chloro-1,10-phenanthroline)sulfatooxovanadium(IV) [Compound 31] | 5.4 µM
CC(=O)c1cc(Br)ccc1[O][V](=[O])[O]c1ccc(Br)cc1C(C)=O [Compound 40, bis(5′-bromo-2′-hydroxyacetophenone)oxovanadium(IV)] | > 100 µM
bis(5-nitro-1,10-phenanthroline)sulfatooxovanadium(IV) [Compound 33] | 5.6 µM
(diaqua) (1,10-phenanthroline)oxovanadium(IV) sulfate [Compound 26] | 6.6 µM
(diaqua)(5-chloro-1,10-phenanthroline)oxovanadium(IV) sulfate [Compound 30] | 18.2 µM

tested on: PC3 prostate cancer cells; assay: Cytotoxic activity of oxovanadium(IV) compounds, PC3; assay type: cell-based, human; details: read-out: Cytotoxic Activity PC3
Procedure: as §1

Compound | IC50
bis(5-chloro-1,10-phenanthroline)sulfatooxovanadium(IV) [Compound 31] | 4.6 µM
bis(5-nitro-1,10-phenanthroline)sulfatooxovanadium(IV) [Compound 33] | 6.1 µM
(diaqua) (1,10-phenanthroline)oxovanadium(IV) sulfate [Compound 26] | 11.2 µM
(diaqua)(5-chloro-1,10-phenanthroline)oxovanadium(IV) sulfate [Compound 30] | 12.4 µM
